From US10788502B2, “Erythrocyte sedimentation inhibitor” (FUJIMORI KOGYO CO., LTD., priority 2014, dated 2020)

What was measured:
[1] = tested on: citrate blood (thrombus formation; blood coagulation capacity and platelet function); test: Microchip capillary perfusion: pressure changes caused by formation of thrombi composed of fibrin and platelets; assay type: cell-based; settings: for blood sedimentation: blood sample of the perfusion test; for thrombus formation (pressure pattern during perfusion): perfusion 10 μl/min for 30 minutes, collagen and tissue thromboplastin coated capillary
Method: The apparatus described in FIG. 12 of Patent Document 1 was used.
A capillary having a width of 300 μm, depth of 80 μm, and length of 1.5 cm formed on a microchip was coated with type I collagen (manufactured by Nitta Gelatin Inc.) and tissue thromboplastin (manufactured by Sysmex Corporation). The capillary was perfused with citrate blood supplemented with CTI (corn trypsin inhibitor) (final concentration, 50 μg/ml), calcium chloride (final concentration, 12 mM), and DIDS (final concentration, 0 or 1.5 mg/ml) or DNDS (final concentration, 0.3 mg/ml) fed from a blood container at a flow rate of 10 μl/min for 30 minutes, while changes in the pressure caused by formation of thrombi composed of fibrin and platelets were continuously measured.
FIG. 5 is a graph showing the pressure patterns during the perfusion with blood samples. The pressure reflects formation of thrombi composed of fibrin and activated platelets, and comprehensively reflects the blood coagulation capacity and the platelet function. […] B represents the pressure changes in the case of the blood sample supplemented with DIDS (1.5 mg/ml), and C represents the pressure changes in the case of the perfusion with the blood supplemented with DNDS (0.3 mg/ml).

[2] = tested on: erythrocytes in blood anticoagulated with sodium citrate; test: Blood sedimentation of citrated blood left to stand in a glass tube or blood container; assay type: cell-based; settings: 30 minutes
Method: (§1) A solution of DIDS (Tokyo Chemical Industry Co., Ltd.) in physiological saline was added to blood anticoagulated with sodium citrate to a final concentration of 0.15 mg/ml or 1.5 mg/ml, respectively. The resulting mixture was mixed, and placed in a glass tube having a diameter of 6 mm (FIG. 1) or a blood container for measurement of thrombus formation (FIG. 2), followed by being left to stand.
as §1, with “DNDS” for “DIDS”, “0.02 mg/ml, 0.1 mg/ml,” for “0.15 mg/ml”, “0.2” for “1.5”, “3),” for “1) or a blood container for measurement of thrombus formation (FIG. 2),”
A solution of DNDS (Tokyo Chemical Industry Co., Ltd.) in physiological saline was added to blood anticoagulated with sodium citrate to a final concentration of 0.5 mg/ml or 1.0 mg/ml, respectively. The resulting mixture was mixed, and placed in a glass tube having a diameter of 6 mm. The glass tube was then inclined at an angle of 30°, and left to stand (FIG. 4).

Solubility in water = assay type: physicochemical

## O=S(=O)(O)c1cc(N=C=S)ccc1C=Cc1ccc(N=C=S)cc1S(=O)(=O)O [DIDS, 4,4′-Diisothiocyanatostilbene-2,2′-disulfonic acid]
[1]; 1.5 mg/ml
  blood sedimentation: strongly suppresses blood sedimentation
  thrombus formation (pressure pattern during perfusion): does not affect thrombus formation
[2]; 0.15 mg/ml final concentration, 6 mm glass tube or blood container for measurement of thrombus formation
  blood sedimentation: rather suppressed
[2]; 1.5 mg/ml final concentration, glass tube and container having an inclined bottom
  blood sedimentation: completely suppressed

## O=[N+]([O-])c1ccc(C=Cc2ccc([N+](=O)[O-])cc2S(=O)(=O)[O-])c(S(=O)(=O)[O-])c1.[Na+].[Na+] [DNDS, disodium 4,4′-dinitrostilbene-2,2′-disulfonate]
Solubility in water
  solubility in water: soluble in water
[1]; 0.3 mg/ml
  blood sedimentation: strongly suppresses blood sedimentation
  thrombus formation (pressure pattern during perfusion): does not affect thrombus formation
[2]; 0.02 mg/ml final concentration, 6 mm glass tube
  blood sedimentation relative to the control: suppressed
[2]; 0.1 mg/ml final concentration, 6 mm glass tube
  blood sedimentation relative to the control: suppressed
[2]; 0.2 mg/ml final concentration, 6 mm glass tube
  blood sedimentation: almost completely suppressed
[2]; 0.5 mg/ml final concentration, 6 mm glass tube inclined at an angle of 30°
  blood sedimentation relative to the control: suppressed
[2]; 1.0 mg/ml final concentration, 6 mm glass tube inclined at an angle of 30°
  blood sedimentation relative to the control: suppressed
